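Interpolation was linear, between the two tested concentrations surrounding the appropriate level; five concentrations were tested over 48 hours in 96-well plates. GI50 is the concentration that inhibits growth by half.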 Active and inactive are the calls of the source. Rule as the data show it: active = GI50 up to about 1.1 µM and inactive = higher.
Key:
Experiment in all cases: NCI tumour cell line growth inhibition, 48 h
[1] = tested on: 786-0
[2] = tested on: CAKI-1
[3] = tested on: COLO 205
[4] = tested on: EKVX
[5] = tested on: HOP-62
[6] = tested on: HOP-92
[7] = tested on: Hs-578T
[8] = tested on: IGROV-1
[9] = tested on: KM12
[10] = tested on: M14
[11] = tested on: MOLT-4
[12] = tested on: OVCAR-4
[13] = tested on: PC-3
[14] = tested on: SK-MEL-5
[15] = tested on: SN12C
[16] = tested on: U-251
[17] = tested on: A498
[18] = tested on: NCI-H460
[19] = tested on: MCF7

Measured: GI50

Oc1ccc2ccccc2c1/N=N/c1ccc(Cl)cc1
inactive: [1] 34.6 µM | [2] > 100 µM | [3] 53 µM | [4] > 100 µM | [5] > 100 µM | [6] > 100 µM | [7] > 100 µM | [8] > 100 µM | [9] > 100 µM | [10] > 100 µM | [11] > 100 µM | [12] > 100 µM | [13] > 100 µM | [14] > 100 µM | [15] > 100 µM | [16] > 100 µM

CNS(=O)(=O)c1ccc2c(c1)/C(=C1/Nc3ccccc3C1=O)C(=O)N2
inactive: [17] > 100 µM | [2] > 100 µM | [3] > 100 µM | [4] > 100 µM | [5] > 100 µM | [7] 3.41 µM | [8] 18.7 µM | [10] > 100 µM | [11] 39.6 µM | [18] > 100 µM | [13] > 100 µM | [14] 5.2 µM | [15] > 100 µM | [16] 5.04 µM

CCOC(=O)C1=C(OC(OCC)C(C)[Se]c2ccccc2)CCC1 (configuration not stated)
inactive: [1] 12.5 µM | [17] > 100 µM | [2] 51.1 µM | [3] 25.1 µM | [4] 21.6 µM | [5] 64.6 µM | [6] 24.5 µM | [8] 26.4 µM | [9] 59 µM | [10] 20.5 µM | [11] 15.9 µM | [18] 25.4 µM | [12] 18 µM | [14] 19.1 µM | [15] 14.6 µM | [16] 6.78 µM

CCCCOc1ccc(S(=O)(=O)/N=C(\NN)Nc2ccc(Cl)cc2)cc1
inactive: [1] 17.1 µM | [17] 47.1 µM | [2] 21.5 µM | [3] 18 µM | [4] 45.4 µM | [5] 20.4 µM | [6] 25.2 µM | [8] 26.1 µM | [9] 32.7 µM | [10] 24.2 µM | [19] 32.1 µM | [11] 23.3 µM | [18] 16.4 µM | [12] 19.1 µM | [13] 17.7 µM | [14] 35.9 µM | [15] 19.2 µM | [16] 16.4 µM

O=P(NCCCO)(OCc1ccccc1)N(CCCl)CCCl (configuration not stated)
inactive: [17] > 100 µM | [2] > 100 µM | [3] > 100 µM | [6] > 100 µM | [8] > 74.5 µM | [9] > 100 µM | [19] > 100 µM | [11] > 100 µM | [18] > 100 µM | [12] > 100 µM | [14] > 100 µM | [15] > 100 µM | [16] > 100 µM

C[C@]12C=CC(=O)C=C1CC[C@@H]1[C@@H]2CC[C@@]2(C)[C@H]1CC[C@]2(O)C(N)=O
inactive: [1] > 100 µM | [17] > 100 µM | [3] > 100 µM | [4] > 100 µM | [5] > 100 µM | [6] > 100 µM | [7] > 100 µM | [8] > 100 µM | [9] > 100 µM | [10] > 100 µM | [11] > 100 µM | [18] > 100 µM | [12] > 100 µM | [13] > 100 µM | [14] > 100 µM | [15] > 100 µM | [16] > 100 µM

N#Cc1c(-c2ccc(Cl)cc2)cc(-c2ccc(Nc3ccnc4cc(Cl)ccc34)cc2)nc1N
inactive: [1] > 100 µM | [17] > 100 µM | [2] > 100 µM | [3] > 100 µM | [4] > 100 µM | [5] > 100 µM | [6] > 100 µM | [8] > 100 µM | [9] > 100 µM | [10] > 100 µM | [18] > 100 µM | [12] 38.2 µM | [13] > 100 µM | [16] 97.1 µM

O=C(COc1cc(=O)oc2ccccc12)c1ccccc1
inactive: [1] 30.2 µM | [17] 60.7 µM | [2] 4.69 µM | [4] > 100 µM | [5] 37.8 µM | [6] 16.7 µM | [7] 24.9 µM | [8] 26.9 µM | [9] 37.9 µM | [10] 42 µM | [19] > 100 µM | [11] > 100 µM | [18] > 100 µM | [12] 29.6 µM | [14] 37.7 µM | [15] > 100 µM | [16] 17.7 µM

COc1ccc([S+]([O-])Cc2cc(OC)ccc2OC)cc1 (configuration not stated)
inactive: [1] > 100 µM | [17] > 100 µM | [2] > 100 µM | [3] > 100 µM | [4] > 100 µM | [5] > 100 µM | [6] > 100 µM | [8] > 100 µM | [9] > 100 µM | [10] > 100 µM | [19] > 100 µM | [11] > 100 µM | [18] > 100 µM | [12] > 100 µM | [13] > 100 µM | [15] > 100 µM | [16] > 100 µM

CC1=CC(=O)C(=CN2C(=O)/C(=C\c3cccnc3)NC2=S)C(=O)O1
inactive: [1] > 100 µM | [2] > 100 µM | [3] > 100 µM | [4] > 100 µM | [5] > 100 µM | [6] > 100 µM | [8] > 100 µM | [9] > 100 µM | [10] > 100 µM | [19] > 100 µM | [11] > 100 µM | [18] > 100 µM | [12] > 100 µM | [13] > 100 µM | [14] > 100 µM | [15] > 100 µM | [16] > 100 µM

COc1cc(/C=C2/C[C@H]3[C@@H]4CC=C5C[C@@H](O)CC[C@]5(C)[C@H]4CC[C@]3(C)NC2=O)cc(OC)c1OC
inactive: [1] 17.7 µM | [17] 5.24 µM | [2] 11.9 µM | [3] > 38.9 µM | [4] 15.1 µM | [5] 23.1 µM | [6] 3.69 µM | [8] 11.8 µM | [9] 30.9 µM | [10] 30.5 µM | [19] 11.8 µM | [11] 21.6 µM | [18] 11.8 µM | [12] 15.1 µM | [13] 18.7 µM | [14] 6.7 µM | [15] 7.36 µM | [16] 22.5 µM

CC1(c2ccc[n+](Cc3ccccc3)c2)OCCO1
inactive: [1] > 100 µM | [17] > 100 µM | [2] > 100 µM | [3] > 100 µM | [4] > 100 µM | [5] > 100 µM | [8] > 100 µM | [9] > 100 µM | [10] > 100 µM | [11] > 100 µM | [18] > 100 µM | [12] > 100 µM | [14] > 100 µM | [15] > 100 µM | [16] > 100 µM
